The record followed here is patent publication US20250145633A1, “SUBSTITUTED FURANOPYRIMIDINE COMPOUNDS AS PDE1 INHIBITORS” (Dart NeuroScience, LLC, priority 2017, published 2025).

The target in this test is human PDE1B enzyme (Homo sapiens (Human), UniProt Q01064). Nature of the test: IMAP TR-FRET PDE1B enzymatic assay. The format is biochemical. To be noted: negative log of half-maximal molar inhibitory concentration, 200 nM FAM-cAMP, values given as bins; for IC50: read-out: PDE1b (pIC50) (converted). The method in brief: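 Full-length GST-tagged human PDE1B (250 pg/well) in IMAP BSA buffer with 10 U/ml calmodulin and 2.5 mM CaCl2; compound pre-incubated 5 min at room temperature, then 200 nM (final) FAM-cAMP for 30 min. IMAP binding reagent/Tb added, 1 h; TR-FRET 520/490 ratio read. IC50 from sigmoidal dose-response fit.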
A general note: In TR-FRET formats the signal depends on donor and acceptor labels being close together.

Regarding `Cc1oc2ncnc(NC3(C)CC3)c2c1C(=O)N(C)Cc1nccs1` [Example 701, N,6-Dimethyl-4-[(1-methylcyclopropyl)amino]-N-(1,3-thiazol-2-ylmethyl)furo[2,3-d]pyrimidine-5-carboxamide], the IC50 is 100 to 1000 nM. For the compound `Cc1cnc(CN(C)C(=O)c2c(C)oc3ncnc(NC4(C)CC4)c23)s1` [Example 702, N,6-Dimethyl-N-[(5-methyl-1,3-thiazol-2-yl)methyl]-4-[(1-methylcyclopropyl)amino]furo[2,3-d]pyrimidine-5-carboxamide], the IC50 was 10 to 100 nM. Still for that read-out and setting: then `Cc1csc(CNC(=O)c2c(C)oc3ncnc(NC4(C)CC4)c23)n1` [Example 703, 6-Methyl-N-[(4-methyl-1,3-thiazol-2-yl)methyl]-4-[(1-methylcyclopropyl)amino]furo[2,3-d]pyrimidine-5-carboxamide], with 10 to 100 nM. With `Cc1oc2ncnc(NC3(C)CC3)c2c1C(=O)NCc1nc(C(F)(F)F)cs1` [Example 704, 6-Methyl-4-[(1-methylcyclopropyl)amino]-N-{[4-(trifluoromethyl)-1,3-thiazol-2-yl]methyl}furo[2,3-d]pyrimidine-5-carboxamide], the “PDE1b (pIC50)” value was more than 8. In the case of `Cc1cnc(CNC(=O)c2c(C)oc3ncnc(NC4(C)CC4)c23)nc1` [Example 705, 6-Methyl-4-[(1-methylcyclopropyl)amino]-N-[(5-methylpyrimidin-2-yl)methyl]furo[2,3-d]pyrimidine-5-carboxamide], the “PDE1b (pIC50)” value was more than 8. As for `Cc1oc2ncnc(NC3(C)CC3)c2c1C(=O)NCc1ncc(C(F)F)cn1` [Example 706, N-{[5-(Difluoromethyl)pyrimidin-2-yl]methyl}-6-methyl-4-[(1-methylcyclopropyl)amino]furo[2,3-d]pyrimidine-5-carboxamide], the IC50 was 10 to 100 nM. Still for that read-out and setting: then `Cc1oc2ncnc(NC3(C)CC3)c2c1C(=O)NCc1nccc(C(F)F)n1` [Example 707, N-{[4-(Difluoromethyl)pyrimidin-2-yl]methyl}-6-methyl-4-[(1-methylcyclopropyl)amino]furo[2,3-d]pyrimidine-5-carboxamide], with 10 to 100 nM.

As to `Cc1oc2ncnc(NC3(C)CC3)c2c1C(=O)NCc1cnc(C2CC2)nc1` [Example 708, N-[(2-Cyclopropylpyrimidin-5-yl)methyl]-6-methyl-4-[(1-methylcyclopropyl)amino]furo[2,3-d]pyrimidine-5-carboxamide], the “PDE1b (pIC50)” value is recorded as more than 8. Turning to `COc1nc(C)nc2c1CN(C(=O)c1c(C)oc3ncnc(NC4(C)CC4)c13)C2` [Example 709, 5-{4-Methoxy-2-methyl-5H,6H,7H-pyrrolo[3,4-d]pyrimidine-6-carbonyl}-6-methyl-N-(1-methylcyclopropyl)furo[2,3-d]pyrimidin-4-amine], the IC50 is 100 to 1000 nM.

Turning to `Cc1oc2ncnc(NC3(C)CC3)c2c1C(=O)NC(C)c1cncnc1` (centres unmarked) [Example 710, 6-Methyl-4-[(1-methylcyclopropyl)amino]-N-[1-(pyrimidin-5-yl)ethyl]furo[2,3-d]pyrimidine-5-carboxamide], the IC50 was 10 to 100 nM. Still for that read-out and setting: the figure for `COc1ccc(CNC(=O)c2c(C)oc3ncnc(NC4(C)CC4)c23)nn1` [Example 711, N-[(6-Methoxypyridazin-3-yl)methyl]-6-methyl-4-[(1-methylcyclopropyl)amino]furo[2,3-d]pyrimidine-5-carboxamide] is 10 to 100 nM. Same read-out and setting: then `COc1nc(C)nc2c1CN(C(=O)c1c(C)oc3ncnc(NC4(C)CC4)c13)CC2` [Example 712, 5-{4-Methoxy-2-methyl-5H,6H,7H,8H-pyrido[4,3-d]pyrimidine-6-carbonyl}-6-methyl-N-(1-methylcyclopropyl)furo[2,3-d]pyrimidin-4-amine], with 10 to 100 nM; and `Cc1oc2ncnc(NC3(C)CC3)c2c1C(=O)NCc1ncco1` [Example 713, 6-Methyl-4-[(1-methylcyclopropyl)amino]-N-(1,3-oxazol-2-ylmethyl)furo[2,3-d]pyrimidine-5-carboxamide], with 10 to 100 nM. For the compound `COc1ccc2oc(CNC(=O)c3c(C)oc4ncnc(NC5(C)CC5)c34)nc2c1` [Example 714, N-[(5-Methoxy-1,3-benzoxazol-2-yl)methyl]-6-methyl-4-[(1-methylcyclopropyl)amino]furo[2,3-d]pyrimidine-5-carboxamide], the “PDE1b (pIC50)” value was more than 8. With `Cc1oc2ncnc(NC3(C)CC3)c2c1C(=O)NCc1nccn1C` [Example 715, 6-Methyl-N-[(1-methyl-1H-imidazol-2-yl)methyl]-4-[(1-methylcyclopropyl)amino]furo[2,3-d]pyrimidine-5-carboxamide], the IC50 is 10 to 100 nM. On to `Cc1oc2ncnc(NC3(C)CC3)c2c1C(=O)NCc1ncc(Cl)cn1` [Example 716, N-[(5-Chloropyrimidin-2-yl)methyl]-6-methyl-4-[(1-methylcyclopropyl)amino]furo[2,3-d]pyrimidine-5-carboxamide], for which the “PDE1b (pIC50)” value was more than 8. For the compound `Cc1nnc(CNC(=O)c2c(C)oc3ncnc(NC4(C)CC4)c23)o1` [Example 717, 6-Methyl-N-[(5-methyl-1,3,4-oxadiazol-2-yl)methyl]-4-[(1-methylcyclopropyl)amino]furo[2,3-d]pyrimidine-5-carboxamide], the IC50 was 10 to 100 nM.

On to `Cc1ccc(CNC(=O)c2c(C)oc3ncnc(NC4(C)CC4)c23)nn1` [Example 718, 6-Methyl-4-[(1-methylcyclopropyl)amino]-N-[(6-methylpyridazin-3-yl)methyl]furo[2,3-d]pyrimidine-5-carboxamide], for which the IC50 was 10 to 100 nM. Still for that read-out and setting: the figure for `Cc1oc2ncnc(NC3(C)CC3)c2c1C(=O)NCc1cn2ccnc2cn1` [Example 719, N-{Imidazo[1,2-a]pyrazin-6-ylmethyl}-6-methyl-4-[(1-methylcyclopropyl)amino]furo[2,3-d]pyrimidine-5-carboxamide] is 10 to 100 nM; for `Cc1oc2ncnc(NC3(C)CC3)c2c1C(=O)NC1CN(c2ccncn2)C1` [Example 720, 6-Methyl-4-[(1-methylcyclopropyl)amino]-N-[1-(pyrimidin-4-yl)azetidin-3-yl]furo[2,3-d]pyrimidine-5-carboxamide] it is 100 to 1000 nM; for `Cc1oc2ncnc(NC3(C)CC3)c2c1C(=O)Nc1ccc(C2CCOCC2)cc1` [Example 721, 6-Methyl-4-[(1-methylcyclopropyl)amino]-N-[4-(oxan-4-yl)phenyl]furo[2,3-d]pyrimidine-5-carboxamide] it is 100 to 1000 nM. Same read-out and setting: then `Cc1oc2ncnc(NC3(C)CC3)c2c1C(=O)NCc1ccc(OC(F)(F)F)cc1` [Example 722, 6-Methyl-4-[(1-methylcyclopropyl)amino]-N-{[4-(trifluoromethoxy)phenyl]methyl}furo[2,3-d]pyrimidine-5-carboxamide], with 10 to 100 nM. As for `Cc1oc2ncnc(NC3(C)CC3)c2c1C(=O)NCc1ccc(OC(F)(F)F)cc1F` [Example 723, N-{[2-Fluoro-4-(trifluoromethoxy)phenyl]methyl}-6-methyl-4-[(1-methylcyclopropyl)amino]furo[2,3-d]pyrimidine-5-carboxamide], the IC50 is 10 to 100 nM. On the same count and under the same terms, then `Cc1oc2ncnc(NC3(C)CC3)c2c1C(=O)NCCc1nc2cc(F)ccc2[nH]1` [Example 724, N-[2-(5-Fluoro-1H-1,3-benzodiazol-2-yl)ethyl]-6-methyl-4-[(1-methylcyclopropyl)amino]furo[2,3-d]pyrimidine-5-carboxamide], with 10 to 100 nM. As to `Cc1oc2ncnc(NC3(C)CC3)c2c1C(=O)NCc1nc2ccc(F)cc2n1C` [Example 725, N-[(6-Fluoro-1-methyl-1H-1,3-benzodiazol-2-yl)methyl]-6-methyl-4-[(1-methylcyclopropyl)amino]furo[2,3-d]pyrimidine-5-carboxamide], the IC50 is 10 to 100 nM. As for `CCc1nccc(CNC(=O)c2c(C)oc3ncnc(NC4(C)CC4)c23)n1` [Example 726, N-[(2-Ethylpyrimidin-4-yl)methyl]-6-methyl-4-[(1-methylcyclopropyl)amino]furo[2,3-d]pyrimidine-5-carboxamide], the IC50 was 10 to 100 nM. For `Cc1oc2ncnc(NC3(C)CC3)c2c1C(=O)Nc1ccc(C2CCOCC2)cn1` [Example 727, 6-Methyl-4-[(1-methylcyclopropyl)amino]-N-[5-(oxan-4-yl)pyridin-2-yl]furo[2,3-d]pyrimidine-5-carboxamide], the IC50 was 10 to 100 nM. Still for that read-out and setting: the figure for `Cc1nc(CNC(=O)c2c(C)oc3ncnc(NC4(C)CC4)c23)oc1C` [Example 728, N-[(Dimethyl-1,3-oxazol-2-yl)methyl]-6-methyl-4-[(1-methylcyclopropyl)amino]furo[2,3-d]pyrimidine-5-carboxamide] is 10 to 100 nM; for `Cc1oc2ncnc(NC3(C)CC3)c2c1C(=O)NCc1nc2cc(F)ccc2[nH]1` [Example 729, N-[(5-Fluoro-1H-1,3-benzodiazol-2-yl)methyl]-6-methyl-4-[(1-methylcyclopropyl)amino]furo[2,3-d]pyrimidine-5-carboxamide] it is 10 to 100 nM; for `Cc1oc2ncnc(NC3(C)CC3)c2c1C(=O)NCCc1nc2cc(F)ccc2o1` [Example 730, N-[2-(5-Fluoro-1,3-benzoxazol-2-yl)ethyl]-6-methyl-4-[(1-methylcyclopropyl)amino]furo[2,3-d]pyrimidine-5-carboxamide] it is 10 to 100 nM.

In the case of `COc1cnc(CNC(=O)c2c(C)oc3ncnc(NC4(C)CC4)c23)cn1` [Example 731, N-[(5-Methoxypyrazin-2-yl)methyl]-6-methyl-4-[(1-methylcyclopropyl)amino]furo[2,3-d]pyrimidine-5-carboxamide], the IC50 is 10 to 100 nM. Same read-out and setting: the figure for `Cc1oc2ncnc(NC3(C)CC3)c2c1C(=O)NCc1cnc(C2CC2)cn1` [Example 732, N-[(5-Cyclopropylpyrazin-2-yl)methyl]-6-methyl-4-[(1-methylcyclopropyl)amino]furo[2,3-d]pyrimidine-5-carboxamide] is 10 to 100 nM.
